What was measured:
[1] = tested on: rat with a crushed sciatic nerve; test: Pain assay, 'trauma' model of neuropathic pain (crushed sciatic nerve), paw withdrawal latency with heat lamp; assay type: in vivo; settings: rats, 10 mg/kg IP once on day 0, tested each day
Procedure: Test compound, VPC01091 (Drug T, mixture of all isomers), was dissolved in 2% hydroxypropyl beta-cyclodextrin in water and administered to the test group of laboratory rats. The vehicle (Drug V: 2% hydroxypropyl beta-cyclodextrin in water) was administered to the control group of laboratory rats. Each group included 11 animals.
The identities of ‘Drug T’ and ‘Drug V’ were maintained in secret to prevent bias. The test solutions (test compound or vehicle) were intraperitoneally (IP) administered once (day 0), the dose was 10 mg/kg body weight. On day 0, each of the 22 animals was anesthetized, the sciatic nerve bundle on the right side exposed surgically, and crushed mechanically. This is known as the ‘trauma’ model of neuropathic pain. The animals were tested each day for the time required to lift either paw after illumination with small heat lamp.

[2] = biological target: T1, SPHK2 enzyme (Homo sapiens, UniProt Q9NRA0); test: Phosphorylation by the SPHK2 enzyme in vitro; assay type: biochemical; settings: separated isomers of VPC01091, in vitro
T1 sequence (Q9NRA0 1-654): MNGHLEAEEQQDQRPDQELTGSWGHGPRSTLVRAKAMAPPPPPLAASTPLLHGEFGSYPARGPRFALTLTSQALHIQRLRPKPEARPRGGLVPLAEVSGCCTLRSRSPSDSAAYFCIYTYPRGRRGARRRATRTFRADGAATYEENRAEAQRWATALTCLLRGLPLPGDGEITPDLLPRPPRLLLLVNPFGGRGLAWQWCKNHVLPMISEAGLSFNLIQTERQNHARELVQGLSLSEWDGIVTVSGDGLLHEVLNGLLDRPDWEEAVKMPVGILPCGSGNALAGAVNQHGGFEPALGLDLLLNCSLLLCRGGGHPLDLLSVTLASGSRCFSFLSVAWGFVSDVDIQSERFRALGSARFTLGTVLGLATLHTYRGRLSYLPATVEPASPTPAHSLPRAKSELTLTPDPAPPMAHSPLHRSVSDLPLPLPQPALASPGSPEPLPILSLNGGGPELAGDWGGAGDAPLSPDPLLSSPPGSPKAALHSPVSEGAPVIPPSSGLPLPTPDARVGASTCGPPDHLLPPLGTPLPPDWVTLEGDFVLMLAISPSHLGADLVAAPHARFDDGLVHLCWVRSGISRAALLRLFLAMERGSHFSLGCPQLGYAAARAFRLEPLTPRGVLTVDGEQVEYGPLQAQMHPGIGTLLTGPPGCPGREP
Procedure: These compounds can be prepared as a mixture and separated by chromatography. Exemplary conditions for separation are as follows: Column: Chiralpak AD 4.6 mm ID×250 mm, Mobile Phase: Hex/EtOH/MeOH/DEA=95/2.5/2.5/0.03, Flow Rate: 1 mL/min, Detector: UV 220 nm, Column Temp: 40° C., or Column Temp: 25° C.

[3] = tested on: sciatic nerve injury (CCI) model; test: Sciatic nerve injury (CCI) model of neuropathic pain, mechanical allodynia; assay type: in vivo, rat; settings: rats, 3 mg/kg p.o. once a day for 5 days, started 2 weeks after nerve injury
Excerpt: In these models, oral treatment with VPC01091-D was started 2 weeks following nerve injury, once the pain was established. A control group received only vehicle. Following once a day dosing for 5 days, […].) reversed mechanical allodynia by 42±8% in the CCI model. (See FIG. 5).

[4] = tested on: spinal nerve injury (SNL) model; test: Spinal nerve injury (SNL) model of neuropathic pain, mechanical allodynia; assay type: in vivo, rat; settings: rats, 3 mg/kg p.o., started 2 weeks after nerve injury
Excerpt: In these models, oral treatment with VPC01091-D was started 2 weeks following nerve injury, once the pain was established. A control group received only vehicle.

SMILES | analgesic effect (PWL time increases after injury), only on the affected side [1] | development of thermal hyperalgesia in the affected (crushed nerve) paw (PWL) [1] | phosphorylated by the SPHK2 enzyme in vitro [2] | reversed mechanical allodynia [3] [%] | analgesic activity [4] [%]
CCCCCCCCc1ccc(C2CCC(N)(CO)C2)cc1 (centres unmarked) [VPC01091, (1-amino-3-(4-octylphenyl)cyclopentyl)methanol] | exhibited an analgesic effect | prevented the development of thermal hyperalgesia |  |  | 
CCCCCCCCc1ccc([C@H]2CC[C@](N)(CO)C2)cc1 [VPC01091-D] |  |  | not phosphorylated | 42±8 | 50±10
